# Experimental data: US6075057A, “Inhibition of carbohydrates metabolism by quinone compounds” (priority 1997, dated 2000)
# Legend:
# [1] = system: α-galactosidase (EC 3.2.1.22); experiment: Initial screening assay for enzyme inhibition, α-galactosidase (E. coli); format: biochemical, Escherichia coli; details: 2% MeOH
# Description: (§1) Optically pure enantiomers of avarol were synthetically prepared. A survey of potential inhibitory activity by avarol against twelve glycosidases was performed according to general procedures^15 (see experimental section). The enzymes tested and their biological sources are listed in Table 1 along with any pertinent references found for a given enzyme. In order to determine a working range for enzyme and substrate concentrations in which the rate of product formation was linear and steady-state kinetics were applicable, initial rate studies with varying substrate concentrations were performed in the absence of inhibitor. The Michaelis constants (Km 's) and Vmax values for these enzymes were determined from these plots using standard graphical analysis procedures as described in ref. 17 and are summarized in Table 2.
# (§2) Enzymatic Assays. Piperazine-N,N'-bix-(2-ethanesulfonic acid)(PIPES) buffer, enzymes, and substrates were purchased from Sigma and used as received. Buffer solutions and enzymes (desiccated) were stored at 4° C. p-Nitrophenyl glycoside substrates were stored desiccated at -20° C. Enzyme inhibition assays and initial rate studies were carried out with the appropriate p-nitrophenyl glycoside substrates following the general procedure of Kajimoto et al., J. Am. Chem. Soc. 113:6187 (1991) with the exception that amyloglucosidase (EC 3.2,1.3, Asp. niger) was assayed following the method of Saul et al., Arch. Biochem. Biophys. 221:593 (1983). Assays were performed in a Perkin-Elmer Lambda Array 3840 Spectrophotometer using the built-in drive method (resolution=0.25, average=8) in a quartz cuvette (1 cm pathlength). Background absorption spectra were acquired using millipore filtered water as medium. Steady-state kinetics were maintained by adjusting the amount of enzyme used in each assay so that less than 10% of the substrate was converted to product for the duration of the reaction. Reactions were monitored at 400 nm (the absorbance of the p-nitrophenol product, ε=3204.5 M^-1 cm^-1) for a given amount of time and the initial rates were calculated and expressed as μmols p-nitrophenol formed per unit enzyme per second. Absportion readings for control reactions were corrected for the small baseline absorbance at time zero. Small discrepancies between time zero absorbance readings in a given inhibition assay and a time zero reading in a control assay were used to correct the overall absorbance change calculated in the inhibition assay. […]
# (§3) Typical assay: A 1.5-mL quartz cuvette was charged with 940 μL of PIPES-NaOAc buffer solution (pH 6.56), 20 μL of inhibitor solution, and 20 μL of enzyme solution. […] The reaction was monitored at 400 nm for 1 min and the absorbance change was used to calculate the initial hydrolysis rate. […]
# [2] = target: T1, α-galactosidase (EC 3.2.1.22) (Coffea arabica, UniProt Q42656); experiment: Initial screening assay for enzyme inhibition, α-galactosidase (green coffee beans); format: biochemical; details: α-galactosidase (green coffee beans), 2% MeOH, read-out: % Enzyme activity relative to control
# T1 construct: purchased Sigma; host or cells: green coffee beans
# T1 sequence (Q42656 16-378): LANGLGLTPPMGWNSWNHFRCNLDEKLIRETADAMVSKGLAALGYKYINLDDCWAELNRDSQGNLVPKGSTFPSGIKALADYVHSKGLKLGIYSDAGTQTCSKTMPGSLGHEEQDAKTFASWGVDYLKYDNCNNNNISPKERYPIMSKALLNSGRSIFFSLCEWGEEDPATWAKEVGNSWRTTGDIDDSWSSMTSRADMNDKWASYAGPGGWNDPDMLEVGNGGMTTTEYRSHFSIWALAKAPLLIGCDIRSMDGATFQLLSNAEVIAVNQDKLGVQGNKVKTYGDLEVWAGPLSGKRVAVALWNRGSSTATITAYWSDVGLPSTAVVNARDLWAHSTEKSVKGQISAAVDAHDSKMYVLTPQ
# Description: as §1, §2, §3
# [3] = target: T2, α-glucosidase (EC 3.2.1.20, type IV) (Saccharomyces cerevisiae, UniProt P53341); experiment: Initial screening assay for enzyme inhibition, α-glucosidase; format: biochemical, brewer's yeast; details: for remaining activity at 10 µM: α-glucosidase, 10 μM inhibitor, 2% MeOH, read-out: % Enzyme activity relative to control
# T2 construct: purchased Sigma; host or cells: brewer's yeast
# T2 sequence (P53341 whole entry): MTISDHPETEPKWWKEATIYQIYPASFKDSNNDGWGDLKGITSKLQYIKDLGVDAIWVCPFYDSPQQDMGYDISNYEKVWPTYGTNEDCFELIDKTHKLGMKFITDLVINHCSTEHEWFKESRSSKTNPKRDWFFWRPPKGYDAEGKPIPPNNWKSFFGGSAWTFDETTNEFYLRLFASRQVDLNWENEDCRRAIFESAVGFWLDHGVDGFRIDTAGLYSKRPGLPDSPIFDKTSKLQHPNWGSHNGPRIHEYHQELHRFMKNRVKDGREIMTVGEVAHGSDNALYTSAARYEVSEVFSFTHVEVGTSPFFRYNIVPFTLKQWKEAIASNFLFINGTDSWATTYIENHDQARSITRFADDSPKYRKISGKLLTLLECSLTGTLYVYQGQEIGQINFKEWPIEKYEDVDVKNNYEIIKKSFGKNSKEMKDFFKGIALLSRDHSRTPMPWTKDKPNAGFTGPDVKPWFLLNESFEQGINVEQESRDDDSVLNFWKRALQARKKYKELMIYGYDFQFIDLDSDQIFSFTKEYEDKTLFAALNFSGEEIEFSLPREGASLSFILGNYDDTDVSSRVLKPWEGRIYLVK
# Description: as §1
# (§4) Initial screening assays with the enantiomeric avarols indicated significant activity by these compounds against only two of the twelve enzymes studies. […] This can occur when the two species compete for the same site or nearby sites on the enzyme. The equilibria that describe competitive inhibition are shown below. [drawing 3]
# (§5) Enzymatic Assays. Piperazine-N,N'-bix-(2-ethanesulfonic acid)(PIPES) buffer, enzymes, and substrates were purchased from Sigma and used as received. Buffer solutions and enzymes (desiccated) were stored at 4° C. p-Nitrophenyl glycoside substrates were stored desiccated at -20° C. Enzyme inhibition assays and initial rate studies were carried out with the appropriate p-nitrophenyl glycoside substrates following the general procedure of Kajimoto et al., J. Am. Chem. Soc. 113:6187 (1991) with the exception that amyloglucosidase (EC 3.2,1.3, Asp. niger) was assayed following the method of Saul et al., Arch. Biochem. Biophys. 221:593 (1983). Assays were performed in a Perkin-Elmer Lambda Array 3840 Spectrophotometer using the built-in drive method (resolution=0.25, average=8) in a quartz cuvette (1 cm pathlength). Background absorption spectra were acquired using millipore filtered water as medium. Steady-state kinetics were maintained by adjusting the amount of enzyme used in each assay so that less than 10% of the substrate was converted to product for the duration of the reaction. Reactions were monitored at 400 nm (the absorbance of the p-nitrophenol product, ε=3204.5 M^-1 cm^-1) for a given amount of time and the initial rates were calculated and expressed as μmols p-nitrophenol formed per unit enzyme per second. Absportion readings for control reactions were corrected for the small baseline absorbance at time zero. Small discrepancies between time zero absorbance readings in a given inhibition assay and a time zero reading in a control assay were used to correct the overall absorbance change calculated in the inhibition assay. Inhibitors were dissolved in uv-grade absolute methanol.
# (§6) Typical assay: A 1.5-mL quartz cuvette was charged with 940 μL of PIPES-NaOAc buffer solution (pH 6.56), 20 μL of inhibitor solution, and 20 μL of enzyme solution. The result was mixed well and then equilibrated at 37° C. for two minutes. 20 μL of the appropriate p-nitrophenyl glycoside solution was then added to initiate the reaction with rapid mixing. The reaction was monitored at 400 nm for 1 min and the absorbance change was used to calculate the initial hydrolysis rate. Lineweaver-Burk plots were constructed by repeating this procedure with varying substrate and inhibitor concentrations.
# [4] = target: T3, α-D-glucosidase (brewer's yeast) (Saccharomyces cerevisiae, UniProt P53341); experiment: IC50 determination against α-D-glucosidase; format: biochemical
# T3 construct: purchased Sigma; host or cells: brewer's yeast
# T3 sequence (P53341 whole entry): as above
# Description: as §2, with “Background absorption spectra were acquired using millipore filtered water as medium. Steady-state kinetics were maintained by adjusting the amount of enzyme used in each assay so that less than 10% of the substrate was converted to product for the duration of the reaction.” left out
# [5] = target: T4, α-glucosidase (brewer's yeast) (Saccharomyces cerevisiae, UniProt P53341); experiment: Lineweaver-Burk analysis of inhibition of α-glucosidase; format: biochemical; details: replot of Lineweaver-Burk slopes, linear extrapolation; pH 6.56, 37° C.
# T4 construct: purchased Sigma; host or cells: brewer's yeast
# T4 sequence (P53341 whole entry): as above
# Source text: as §4
# The equilibria describing this phenomenon are shown below. [drawing 4] The α factor represents the amount by which KS changes when I binds to the enzyme. The overall equilibrium constant for the formation of ESI remains the same regardless of which path was taken in its formation. Since the ES and ESI complexes are equally efficient in producing product, Vmax remains unchanged and Km is increased in the presence of inhibitor.
# (§7) Enzymatic Assays. […] Reactions were monitored at 400 nm (the absorbance of the p-nitrophenol product, ε=3204.5 M^-1 cm^-1) for a given amount of time and the initial rates were calculated and expressed as μmols p-nitrophenol formed per unit enzyme per second. Absportion readings for control reactions were corrected for the small baseline absorbance at time zero. Small discrepancies between time zero absorbance readings in a given inhibition assay and a time zero reading in a control assay were used to correct the overall absorbance change calculated in the inhibition assay. […]
# [6] = system: β-glucosidase (EC 3.2.1.21); experiment: Initial screening assay for enzyme inhibition, β-glucosidase; format: biochemical, almonds; details: 20 μM inhibitor, 2% MeOH
# Description: as §1, §7
# [7] = system: amyloglucosidase (EC 3.2.1.3); experiment: Initial screening assay for enzyme inhibition, amyloglucosidase; format: biochemical, Aspergillus niger; details: amyloglucosidase, 2% MeOH
# Description: as §1, §5, §6
# [8] = target: T5, α-L-fucosidase (EC 3.2.1.51) (Bos taurus, UniProt Q2KIM0); experiment: Initial screening assay for enzyme inhibition, α-L-fucosidase; format: biochemical, bovine kidney; details: α-L-fucosidase, 2% MeOH, read-out: % Enzyme activity relative to control
# T5 construct: purchased Sigma; host or cells: bovine kidney
# T5 sequence (Q2KIM0 23-468): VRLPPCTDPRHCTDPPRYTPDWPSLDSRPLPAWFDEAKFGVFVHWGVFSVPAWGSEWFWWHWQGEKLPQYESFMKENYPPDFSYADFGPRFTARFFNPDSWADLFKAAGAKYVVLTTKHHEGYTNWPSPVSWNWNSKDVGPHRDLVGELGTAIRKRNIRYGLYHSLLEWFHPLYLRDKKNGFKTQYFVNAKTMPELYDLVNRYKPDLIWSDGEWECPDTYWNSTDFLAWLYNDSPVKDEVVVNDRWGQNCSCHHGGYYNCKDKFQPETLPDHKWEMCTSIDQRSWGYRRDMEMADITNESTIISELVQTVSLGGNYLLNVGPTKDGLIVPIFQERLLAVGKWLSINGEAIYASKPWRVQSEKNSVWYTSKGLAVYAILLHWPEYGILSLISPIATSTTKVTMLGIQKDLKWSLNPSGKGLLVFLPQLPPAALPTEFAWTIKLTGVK
# Description: as §1, §2, §3
# [9] = system: β-mannosidase (EC 3.2.1.25); experiment: Initial screening assay for enzyme inhibition, β-mannosidase; format: biochemical, snail; details: 2% MeOH
# Description: as §1, §2, §3
# [10] = target: T6, β-xylosidase (EC 3.2.1.37) (Aspergillus niger, UniProt O00089); experiment: Initial screening assay for enzyme inhibition, β-xylosidase; format: biochemical; details: 2% MeOH, read-out: % Enzyme activity relative to control
# T6 construct: purchased Sigma; host or cells: Aspergillus niger
# T6 sequence (O00089 27-804): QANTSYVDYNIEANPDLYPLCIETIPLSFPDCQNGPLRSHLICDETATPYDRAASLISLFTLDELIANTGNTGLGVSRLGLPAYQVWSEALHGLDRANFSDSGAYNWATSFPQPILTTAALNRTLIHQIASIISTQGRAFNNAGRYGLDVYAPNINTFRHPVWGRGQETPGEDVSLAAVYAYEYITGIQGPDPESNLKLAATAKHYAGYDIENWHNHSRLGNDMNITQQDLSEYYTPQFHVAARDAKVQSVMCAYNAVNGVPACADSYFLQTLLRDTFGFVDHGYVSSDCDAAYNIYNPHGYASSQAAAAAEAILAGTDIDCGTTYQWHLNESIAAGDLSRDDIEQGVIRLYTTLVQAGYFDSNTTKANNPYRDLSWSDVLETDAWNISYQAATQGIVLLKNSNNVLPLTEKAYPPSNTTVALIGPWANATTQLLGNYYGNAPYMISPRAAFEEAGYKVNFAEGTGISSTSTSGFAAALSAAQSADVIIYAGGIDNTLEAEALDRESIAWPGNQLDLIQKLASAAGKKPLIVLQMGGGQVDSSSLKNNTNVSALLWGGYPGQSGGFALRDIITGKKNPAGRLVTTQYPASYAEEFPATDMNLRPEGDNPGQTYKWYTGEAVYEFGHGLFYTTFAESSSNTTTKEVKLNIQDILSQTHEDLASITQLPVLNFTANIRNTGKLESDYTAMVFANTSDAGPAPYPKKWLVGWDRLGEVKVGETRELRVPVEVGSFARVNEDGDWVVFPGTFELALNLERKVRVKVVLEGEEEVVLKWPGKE
# Description: as §1, §2, §3
# [11] = target: T7, β-galactosidase (EC 3.2.1.23, grade XI) (Aspergillus oryzae, UniProt Q2UCU3); experiment: Initial screening assay for enzyme inhibition, β-galactosidase (Asp. oryzae); format: biochemical; details: 2% MeOH, read-out: % Enzyme activity relative to control
# T7 construct: purchased Sigma; host or cells: Aspergillus oryzae
# T7 sequence (Q2UCU3 19-1005): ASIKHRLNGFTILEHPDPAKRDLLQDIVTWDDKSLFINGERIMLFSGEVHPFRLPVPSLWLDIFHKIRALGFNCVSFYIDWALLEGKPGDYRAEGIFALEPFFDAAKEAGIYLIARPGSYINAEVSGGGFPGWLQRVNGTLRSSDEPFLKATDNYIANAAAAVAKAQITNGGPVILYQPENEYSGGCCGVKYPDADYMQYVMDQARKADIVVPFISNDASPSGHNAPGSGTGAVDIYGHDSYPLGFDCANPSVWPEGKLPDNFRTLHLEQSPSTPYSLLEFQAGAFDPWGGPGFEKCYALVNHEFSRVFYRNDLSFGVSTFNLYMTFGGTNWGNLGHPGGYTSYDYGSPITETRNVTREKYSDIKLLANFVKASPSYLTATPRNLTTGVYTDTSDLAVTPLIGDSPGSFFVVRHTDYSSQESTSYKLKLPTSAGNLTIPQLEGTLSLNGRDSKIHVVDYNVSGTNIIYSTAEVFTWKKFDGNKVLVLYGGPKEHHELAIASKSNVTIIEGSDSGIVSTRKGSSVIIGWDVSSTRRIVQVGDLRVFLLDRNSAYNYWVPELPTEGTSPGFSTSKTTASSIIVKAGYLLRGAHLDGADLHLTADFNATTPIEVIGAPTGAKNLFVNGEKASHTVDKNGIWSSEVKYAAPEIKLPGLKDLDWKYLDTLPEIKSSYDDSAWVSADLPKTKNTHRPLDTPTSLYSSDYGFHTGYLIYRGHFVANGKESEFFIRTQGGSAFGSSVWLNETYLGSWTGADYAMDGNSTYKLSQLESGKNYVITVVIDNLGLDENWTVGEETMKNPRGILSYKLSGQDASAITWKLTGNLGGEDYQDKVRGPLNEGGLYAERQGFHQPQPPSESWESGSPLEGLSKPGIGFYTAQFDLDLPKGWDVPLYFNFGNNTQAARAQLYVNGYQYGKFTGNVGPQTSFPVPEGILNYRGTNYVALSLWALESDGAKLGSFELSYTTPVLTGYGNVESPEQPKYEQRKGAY
# Description: as §1, §2, §3
# [12] = target: T8, β-galactosidase (EC 3.2.1.23) (Aspergillus niger, UniProt P29853); experiment: Initial screening assay for enzyme inhibition, β-galactosidase (Asp. niger); format: biochemical; details: 2% MeOH, read-out: % Enzyme activity relative to control
# T8 construct: purchased Sigma; host or cells: Aspergillus niger
# T8 sequence (P29853 20-1006): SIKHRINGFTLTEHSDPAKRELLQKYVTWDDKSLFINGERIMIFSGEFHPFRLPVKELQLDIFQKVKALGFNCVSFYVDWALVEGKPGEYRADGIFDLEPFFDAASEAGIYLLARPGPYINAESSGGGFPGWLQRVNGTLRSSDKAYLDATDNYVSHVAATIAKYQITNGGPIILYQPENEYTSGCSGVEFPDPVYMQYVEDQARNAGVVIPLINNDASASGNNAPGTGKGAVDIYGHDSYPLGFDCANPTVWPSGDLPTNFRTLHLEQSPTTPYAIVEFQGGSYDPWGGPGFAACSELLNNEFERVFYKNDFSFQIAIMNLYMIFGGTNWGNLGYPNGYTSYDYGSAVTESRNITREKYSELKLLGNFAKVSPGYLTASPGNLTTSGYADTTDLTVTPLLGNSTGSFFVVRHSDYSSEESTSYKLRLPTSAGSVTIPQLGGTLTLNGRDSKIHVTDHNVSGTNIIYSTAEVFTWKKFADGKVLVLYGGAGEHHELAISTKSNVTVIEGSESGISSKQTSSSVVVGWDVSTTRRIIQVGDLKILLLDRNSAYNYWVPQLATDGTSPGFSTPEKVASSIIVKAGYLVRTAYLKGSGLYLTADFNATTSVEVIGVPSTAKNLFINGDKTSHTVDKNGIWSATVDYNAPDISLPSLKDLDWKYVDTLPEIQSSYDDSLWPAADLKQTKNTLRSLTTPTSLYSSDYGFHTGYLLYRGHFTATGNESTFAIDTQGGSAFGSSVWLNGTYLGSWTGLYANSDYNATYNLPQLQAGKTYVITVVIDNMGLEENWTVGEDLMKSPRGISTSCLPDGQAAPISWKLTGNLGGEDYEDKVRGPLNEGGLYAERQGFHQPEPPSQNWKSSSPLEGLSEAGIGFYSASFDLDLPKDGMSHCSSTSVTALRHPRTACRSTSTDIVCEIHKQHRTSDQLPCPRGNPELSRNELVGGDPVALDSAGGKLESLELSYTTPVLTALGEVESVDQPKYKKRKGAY
# Description: as §1, §2, §3
smiles,measurement,setting,value
"CC1=CCC[C@H]2[C@](C)(Cc3cc(O)ccc3O)[C@@H](C)CC[C@]12C [(+)-avarol, (+)-Avarol]",% Enzyme activity relative to control,[1]; 40 μM inhibitor,90%
same,remaining activity at 40 µM,[2]; 40 μM inhibitor,82%
same,remaining activity at 10 µM,[3],63%
same,IC50,[4],> 20 µM
same,Ki,[5],25 µM
same,% Enzyme activity relative to control,[6],102%
same,% Enzyme activity relative to control,[7]; 40 μM inhibitor,113%
same,remaining activity at 40 µM,[8]; 40 μM inhibitor,101%
same,% Enzyme activity relative to control,[9]; 40 μM inhibitor,106%
same,remaining activity at 40 µM,[10]; 40 μM inhibitor,100%
same,remaining activity at 40 µM,[11]; 40 μM inhibitor,100%
same,remaining activity at 40 µM,[12]; 40 μM inhibitor,104%
CC1=CCC[C@@H]2[C@@](C)(Cc3cc(O)ccc3O)[C@H](C)CC[C@@]12C [(-)-avarol],% Enzyme activity relative to control,[1]; 20 μM inhibitor,94%
same,remaining activity at 20 µM,[2]; 20 μM inhibitor,83%
same,"activity versus naturally-occurring enantiomer, α-glucosidase (in words)",[3]; versus (+)-avarol,significantly more active than the naturally-occurring enantiomer
same,remaining activity at 10 µM,[3],43%
same,IC50,[4],7.6 µM
same,Ki,[5],9.5 µM
same,% Enzyme activity relative to control,[6],96%
same,% Enzyme activity relative to control,[7]; 20 μM inhibitor,94%
same,remaining activity at 20 µM,[8]; 20 μM inhibitor,108%
same,% Enzyme activity relative to control,[9]; 20 μM inhibitor,101%
same,remaining activity at 20 µM,[10]; 20 μM inhibitor,91%
same,remaining activity at 20 µM,[11]; 20 μM inhibitor,99%
same,remaining activity at 20 µM,[12]; 20 μM inhibitor,111%
